Results published in US9914955B2, “Genetically encoded FRET-based MMP-9 activity biosensor and use thereof” (Instytut Biologii Doświadczalnej im. Marcelego Nenckiego …, priority 2013, dated 2018).

What was measured:
HEK293 cell lysate = experiment: Baseline cleavage of the biosensor in untreated HEK293 lysate, western blot; format: biochemical
Procedure: Two days post-transfection HEK293 cells were washed one with PBS, scraped from the plate and lysed for 1 h at 4° C. with the following buffer: 50 mM Tris-Cl pH 7.5, 1% Triton X-100, 10 mM CaCl2, 0.02% NaN3, 1 μM ZnCl2. The lysis was performed without protease inhibitors since it was feared that they might block the activity of our auto-activating MMP-9. The lysate was then centrifuged at 13400 rpm for 15′ at 4° C. to remove cell debris. Equal amount of the cleared lysate were used in the subsequent reactions. […] GM6001 inhibitor was used in 25 μM final concentration. Reactions were stopped at either 30′, 1 h, 4 h or after overnight incubation at 37° C. with the addition of SDS-PAGE Sample Buffer and heating to 100° C. for 10 minutes. Sensor was detected on Western Blot with the anti-GFP antibody.

[1] = system: human auto-activating MMP-9; experiment: In vitro cleavage of the biosensor in HEK293 lysate by auto-activating MMP-9, western blot; format: biochemical; conditions: inhibitor 25 μM final concentration

CNC(=O)[C@H](Cc1c[nH]c2ccccc12)NC(=O)[C@@H](CC(=O)NO)CC(C)C [GM6001]
effect of inhibitor on baseline cleavage of the biosensor (HEK293 cell lysate): at least partially, blocked
effect of inhibitor on biosensor cleavage by auto-activating MMP-9 [1]: blocked
